Key:
[1] = system: antibodies in sera from SARS patients (sera 1a, 1b, 2, 6, 37, 62, London, SARS-yellow, SARS-green); type: binding, human
[2] = system: control sera (pooled serum of ten healthy LUMC hospital workers; commercial negative donor pooled serum from the Dutch bloodbank); type: binding, human
[3] = system: rabbit serum obtained by immunizing a rabbit with the SARS-CoV strain Frankfurt 1; type: binding; design: Binding of a rabbit serum to linear peptides / Binding of a rabbit serum to looped peptides / Rabbit serum linear peptides / Rabbit serum looped peptides / Binding of a rabbit serum to linear peptides of protein N of SARS-CoV Urbani (Rabbit serum linear peptides) / Binding of a rabbit serum to looped/cyclic peptides of protein N of SARS-CoV Urbani (Rabbit serum looped peptides): unit not given here

| Sequence | Binding of serum 1a to linear peptides of protein E of SARS-CoV Urbani [1] | Binding of serum 1a to looped/cyclic peptides of protein E of SARS-CoV Urbani [1] | Binding of serum 1b to linear peptides of protein E of SARS-CoV Urbani [1] | Binding of serum 1b to looped/cyclic peptides of protein E of SARS-CoV Urbani [1] | Binding of serum 2 to linear peptides of protein E of SARS-CoV Urbani [1] | Binding of serum 2 to looped/cyclic peptides of protein E of SARS-CoV Urbani [1] | Binding of serum 6 to linear peptides of protein E of SARS-CoV Urbani [1] | Binding of serum 6 to looped/cyclic peptides of protein E of SARS-CoV Urbani [1] | Binding of serum 37 to linear peptides of protein E of SARS-CoV Urbani [1] | Binding of serum 37 to looped/cyclic peptides of protein E of SARS-CoV Urbani [1] | Binding of serum 62 to linear peptides of protein E of SARS-CoV Urbani [1] | Binding of serum 62 to looped/cyclic peptides of protein E of SARS-CoV Urbani [1] | Binding of serum London to linear peptides of protein E of SARS-CoV Urbani [1] | Binding of serum London to looped/cyclic peptides of protein E of SARS-CoV Urbani [1] | Binding of serum SARS-green to linear peptides of protein E of SARS-CoV Urbani [1] | Binding of serum SARS-green to looped/cyclic peptides of protein E of SARS-CoV Urbani [1] | Binding of serum SARS-yellow to linear peptides of protein E of SARS-CoV Urbani [1] | Binding of serum SARS-yellow to looped/cyclic peptides of protein E of SARS-CoV Urbani [1] | Binding of Control Serum Blood-Bank to Looped peptides [2] | Binding of Control serum Blood-bank to linear peptides [2] | also measured |
| --- | --- | --- | --- | --- | --- | --- | --- | --- | --- | --- | --- | --- | --- | --- | --- | --- | --- | --- | --- | --- | --- |
| VLLFLAFVVFLLVTL | 0.8 | 0.6 | 0.9 | 0.5 | 0.8 | 0.5 | 0.9 | 0.4 | 0.8 | 0.6 | 0.8 | 0.8 | 0.6 | 0.4 | 0.5 | 0.3 | 0.3 | 0.6 | 0.5 | 0.8 | Binding of Control serum LUMC to linear peptides [2]: 0.5; Binding of Control serum LUMC to looped peptides [2]: 0.7; Binding of a rabbit serum to linear peptides [3]: 0.5; Binding of a rabbit serum to looped peptides [3]: 0.5 |
| ILTALRLCAYCCNIV | 0.8 | 0.9 | 0.7 | 0.6 | 0.4 | 1.0 | 0.8 | 0.7 | 0.7 | 0.7 | 0.8 | 0.8 | 0.5 | 0.6 | 0.5 | 0.6 | 0.2 | 0.6 | 0.8 | 0.8 | Binding of Control serum LUMC to linear peptides [2]: 0.4; Binding of Control serum LUMC to looped peptides [2]: 0.8; Binding of a rabbit serum to linear peptides [3]: 0.6; Binding of a rabbit serum to looped peptides [3]: 0.6 |
| SEETGTLIVNSVLLF | 0.9 | 0.4 | 0.7 | 0.3 | 0.3 | 0.3 | 0.7 | 0.5 | 0.7 | 0.4 | 0.7 | 0.7 | 0.5 | 0.5 | 0.4 | 0.4 | 0.1 | 0.5 | 0.6 | 0.5 | Binding of Control serum LUMC to linear peptides [2]: 0.6; Binding of Control serum LUMC to looped peptides [2]: 0.5; Binding of a rabbit serum to linear peptides [3]: 0.7; Binding of a rabbit serum to looped peptides [3]: 0.0 |
| AFVVFLLVTLAILTA | 0.8 | 0.5 | 0.6 | 0.4 | 0.4 | 0.4 | 0.6 | 0.5 | 0.7 | 0.5 | 0.7 | 0.6 | 0.6 | 0.4 | 0.4 | 0.5 | 0.2 | 0.5 | 0.8 | 0.5 | Binding of Control serum LUMC to linear peptides [2]: 0.4; Binding of Control serum LUMC to looped peptides [2]: 0.5; Binding of a rabbit serum to linear peptides [3]: 0.7; Binding of a rabbit serum to looped peptides [3]: 0.1 |

Source: US20070128217A1 (priority 2003, published 2007)
